The target of the series is ATP-dependent translocase ABCB1 (Homo sapiens, UniProt P08183). Briefly: TP_TRANSPORTER: transepithelial transport (basal to apical) in MDR1-expressing LLC-PK1 cells. Type of series: functional, cell-based. Particulars: pig.

Structures are written as SMILES.

ATP-dependent translocase ABCB1, sequence (P08183 whole entry): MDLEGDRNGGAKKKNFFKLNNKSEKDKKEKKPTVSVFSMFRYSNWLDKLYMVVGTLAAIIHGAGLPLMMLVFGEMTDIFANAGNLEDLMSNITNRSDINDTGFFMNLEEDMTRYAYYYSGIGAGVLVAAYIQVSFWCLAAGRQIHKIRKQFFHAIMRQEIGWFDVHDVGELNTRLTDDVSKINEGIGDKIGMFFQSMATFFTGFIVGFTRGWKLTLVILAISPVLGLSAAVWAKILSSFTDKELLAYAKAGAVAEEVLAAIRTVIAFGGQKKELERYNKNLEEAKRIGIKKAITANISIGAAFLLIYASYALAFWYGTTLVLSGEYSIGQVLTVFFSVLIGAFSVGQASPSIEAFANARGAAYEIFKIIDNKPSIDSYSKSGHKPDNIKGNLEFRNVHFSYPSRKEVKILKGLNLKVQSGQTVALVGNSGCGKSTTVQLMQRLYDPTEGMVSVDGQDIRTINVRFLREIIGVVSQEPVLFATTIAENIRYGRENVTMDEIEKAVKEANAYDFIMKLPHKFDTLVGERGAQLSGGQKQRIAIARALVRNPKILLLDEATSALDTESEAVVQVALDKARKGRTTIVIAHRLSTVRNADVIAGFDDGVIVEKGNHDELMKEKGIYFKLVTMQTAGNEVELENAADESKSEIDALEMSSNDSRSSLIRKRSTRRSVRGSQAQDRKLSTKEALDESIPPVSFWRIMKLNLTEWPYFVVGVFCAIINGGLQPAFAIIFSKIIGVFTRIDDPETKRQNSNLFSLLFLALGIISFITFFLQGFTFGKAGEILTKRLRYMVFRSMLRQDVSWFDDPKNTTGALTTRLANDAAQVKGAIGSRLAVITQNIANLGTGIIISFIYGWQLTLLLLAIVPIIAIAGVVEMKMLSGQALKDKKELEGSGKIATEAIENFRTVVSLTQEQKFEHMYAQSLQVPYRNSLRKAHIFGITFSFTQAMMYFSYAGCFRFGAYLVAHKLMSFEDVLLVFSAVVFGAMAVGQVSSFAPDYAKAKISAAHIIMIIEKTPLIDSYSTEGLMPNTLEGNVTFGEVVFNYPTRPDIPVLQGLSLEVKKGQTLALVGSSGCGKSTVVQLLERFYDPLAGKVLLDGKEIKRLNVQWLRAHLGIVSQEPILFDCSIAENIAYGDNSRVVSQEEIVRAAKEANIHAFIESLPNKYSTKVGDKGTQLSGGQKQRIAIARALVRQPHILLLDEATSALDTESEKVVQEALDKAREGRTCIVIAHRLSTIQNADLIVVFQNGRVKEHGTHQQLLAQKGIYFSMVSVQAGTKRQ

As to `COc1cccc2c1C(=O)c1c(O)c3c(c(O)c1C2=O)C[C@@](O)(C(=O)CO)C[C@@H]3O[C@H]1C[C@H](N)[C@H](O)[C@H](C)O1` [DOXORUBICIN], the Activity entry was “substrate [+]”.
On to `C/C=C/C[C@@H](C)C(=O)[C@H]1C(=O)N[C@@H](C(C)C)C(=O)N(C)CC(=O)N(C)[C@@H](CC(C)C)C(=O)N[C@@H](C(C)C)C(=O)N(C)[C@@H](CC(C)C)C(=O)N[C@@H](C)C(=O)N[C@H](C)C(=O)N(C)[C@@H](CC(C)C)C(=O)N(C)[C@@H](CC(C)C)C(=O)N(C)[C@@H](C(C)C)C(=O)N1C` [VALSPODAR], for which the Activity result is “is not a substrate [-]”.
